Laboratory results reported in patent US10294202B2, “Pyrrolidinones as herbicides” (FMC Corporation, priority 2013, dated 2019).

Tests used:
Experiment in all cases: Test D pre-/postemergence herbicide test
bluegrass = format: in vivo, Poa annua; settings: for Plant response rating: Bluegrass, scale 0 to 100; for Plant response rating, Bluegrass: scale 0 to 100 (0 no effect, 100 complete control)
Text: (§1) Seeds of plant species selected from bluegrass (annual bluegrass, Poa annua), blackgrass (Alopecurus myosuroides), canarygrass (littleseed canarygrass, Phalaris minor), chickweed (common chickweed, Stellaria media), galium (catchweed bedstraw, Galium aparine), bromegrass, downy (downy bromegrass, Bromus tectorum), field poppy (Papaver rhoeas), field violet (Viola arvensis), foxtail, green (green foxtail, Setaria viridis), deadnettle (henbit deadnettle, Lamium amplexicaule), ryegrass, Italian (Italian ryegrass, Lolium multiflorum), kochia (Kochia scoparia), lambsquarters (Chenopodium album), oilseed rape (Brassica napus), pigweed (Amaranthus retroflexus), chamomile (scentless chamomile, Matricaria inodora), Russian thistle (Salsola kali), speedwell (bird's-eye speedwell, Veronica persica), barley, spring (spring barley, Hordeum vulgare), wheat, spring (spring wheat, Triticum aestivum), buckwheat, wild (wild buckwheat, Polygonum convolvulus), mustard, wild (wild mustard, Sinapis arvensis), oat, wild (wild oat, Avena fatua), radish, wild (wild radish, Raphanus raphanistrum), […]), barley, winter (winter barley, Hordeum vulgare), and wheat, winter (winter wheat, Triticum aestivum) were planted into a silt loam soil and treated preemergence with test chemicals formulated in a non-phytotoxic solvent mixture which included a surfactant. At the same time, these species were planted in pots containing Redi-Earth® planting medium (Scotts Company, 14111 Scottslawn Road, Marysville, Ohio 43041) comprising spaghnum peat moss, vermiculite, wetting agent and starter nutrients and treated with postemergence applications of the test chemicals formulated in the same manner. Plants ranged in height from 2 to 18 cm (1- to 4-leaf stage). Treated plants and controls were maintained in a controlled growth environment for 7 to 21 days after which time all species were compared to controls and visually evaluated. Plant response ratings, summarized in Table D, are based on a scale of 0 to 100 where 0 is no effect and 100 is complete control. A dash (-) response means no test result.

oat, wild = format: in vivo, Avena fatua; settings: for Plant response rating: Postemergence, Oat, Wild, scale 0 to 100; for Plant response rating, Oat, Wild: Preemergence, scale 0 to 100 (0 no effect, 100 complete control)
Text: as §1

radish, wild = format: in vivo, Raphanus raphanistrum; settings: for Plant response rating: Postemergence, Radish, Wild, scale 0 to 100; for Plant response rating, Radish, Wild: Preemergence, scale 0 to 100 (0 no effect, 100 complete control)
Text: as §1

speedwell = format: in vivo, Veronica persica; settings: for Plant response rating: Postemergence, Speedwell, scale 0 to 100; for Plant response rating, Speedwell: Preemergence, scale 0 to 100 (0 no effect, 100 complete control)
Text: as §1

oilseed rape = format: in vivo, Brassica napus; settings: for Plant response rating: Postemergence, Oilseed Rape, scale 0 to 100; for Plant response rating, Oilseed Rape: Preemergence, scale 0 to 100 (0 no effect, 100 complete control)
Text: as §1

What does the source list for O=C1NCC(c2ccc(F)c(F)c2)C1C(=O)Nc1cccc(F)c1 (racemic) [Compound 12]?
Plant response rating (bluegrass; Postemergence, 16 g ai/ha): 0; Plant response rating (bluegrass; Postemergence, 31 g ai/ha): 0; Plant response rating (bluegrass; Postemergence, 62 g ai/ha): 0; Plant response rating (bluegrass; Postemergence, 125 g ai/ha): 10; Plant response rating (bluegrass; Postemergence, 250 g ai/ha): 10; Plant response rating, Bluegrass (bluegrass; Preemergence, 31 g ai/ha): 0; Plant response rating, Bluegrass (bluegrass; Preemergence, 62 g ai/ha): 0; Plant response rating, Bluegrass (bluegrass; Preemergence, 16 g ai/ha): 0; Plant response rating (bluegrass; Preemergence, 125 g ai/ha): 20; Plant response rating (bluegrass; Preemergence, 250 g ai/ha): 40; Plant response rating (oat, wild; 16 g ai/ha): 0; Plant response rating (oat, wild; 31 g ai/ha): 0; Plant response rating (oat, wild; 62 g ai/ha): 10; Plant response rating (oat, wild; 125 g ai/ha): 15; Plant response rating (oat, wild; 250 g ai/ha): 20; Plant response rating, Oat, Wild (oat, wild; 31 g ai/ha): 0; Plant response rating, Oat, Wild (oat, wild; 62 g ai/ha): 0; Plant response rating, Oat, Wild (oat, wild; 125 g ai/ha): 0; Plant response rating, Oat, Wild (oat, wild; 250 g ai/ha): 0; Plant response rating, Oat, Wild (oat, wild; 16 g ai/ha): 0; Plant response rating (radish, wild; 16 g ai/ha): 0; Plant response rating (radish, wild; 31 g ai/ha): 0; Plant response rating (radish, wild; 62 g ai/ha): 20; Plant response rating (radish, wild; 125 g ai/ha): 25; Plant response rating (radish, wild; 250 g ai/ha): 25; Plant response rating, Radish, Wild (radish, wild; 16 g ai/ha): 0; Plant response rating (speedwell; 16 g ai/ha): 0; Plant response rating (speedwell; 31 g ai/ha): 0; Plant response rating (speedwell; 62 g ai/ha): 10; Plant response rating (speedwell; 125 g ai/ha): 10; Plant response rating (speedwell; 250 g ai/ha): 25; Plant response rating, Speedwell (speedwell; 31 g ai/ha): 0; Plant response rating, Speedwell (speedwell; 62 g ai/ha): 0; Plant response rating, Speedwell (speedwell; 125 g ai/ha): 0; Plant response rating, Speedwell (speedwell; 250 g ai/ha): 100; Plant response rating, Speedwell (speedwell; 16 g ai/ha): 0; Plant response rating (oilseed rape; 16 g ai/ha): 10; Plant response rating (oilseed rape; 31 g ai/ha): 10; Plant response rating (oilseed rape; 62 g ai/ha): 10; Plant response rating (oilseed rape; 125 g ai/ha): 20; Plant response rating (oilseed rape; 250 g ai/ha): 25; Plant response rating, Oilseed Rape (oilseed rape; 31 g ai/ha): 0; Plant response rating, Oilseed Rape (oilseed rape; 62 g ai/ha): 10; Plant response rating, Oilseed Rape (oilseed rape; 125 g ai/ha): 10; Plant response rating, Oilseed Rape (oilseed rape; 250 g ai/ha): 20; Plant response rating, Oilseed Rape (oilseed rape; 16 g ai/ha): 0

For O=C1NCC(c2cc(F)c(F)c(F)c2)C1C(=O)Nc1ccccc1C(F)(F)F (racemic) [Compound 33], which Plant response rating (bluegrass; Postemergence, 16 g ai/ha) is on record?
The Plant response rating was 0.

What about the Plant response rating (bluegrass; Postemergence, 31 g ai/ha) of the same molecule?
The Plant response rating was 0.

What about the Plant response rating (bluegrass; Postemergence, 62 g ai/ha) of the same molecule?
Its Plant response rating is 0.

And the Plant response rating (bluegrass; Postemergence, 125 g ai/ha)?
The Plant response rating was 0.

What about the Plant response rating (bluegrass; Postemergence, 250 g ai/ha) of the same molecule?
The Plant response rating was 0.

What about the Plant response rating (oat, wild; 16 g ai/ha) of the same molecule?
The Plant response rating was 0.

What about the Plant response rating (oat, wild; 31 g ai/ha) of the same molecule?
The Plant response rating was 0.

What about the Plant response rating (oat, wild; 62 g ai/ha) of the same molecule?
The Plant response rating was 0.

What about the Plant response rating (oat, wild; 125 g ai/ha) of the same molecule?
The Plant response rating was 0.

And the Plant response rating (oat, wild; 250 g ai/ha)?
The Plant response rating was 0.

And the Plant response rating (radish, wild; 16 g ai/ha)?
Its Plant response rating is 0.

And the Plant response rating (radish, wild; 31 g ai/ha)?
Its Plant response rating is 0.

And the Plant response rating (radish, wild; 62 g ai/ha)?
The Plant response rating was 0.

And the Plant response rating (radish, wild; 125 g ai/ha)?
Its Plant response rating is 0.

What about the Plant response rating (radish, wild; 250 g ai/ha) of the same molecule?
The Plant response rating was 0.

And the Plant response rating (speedwell; 16 g ai/ha)?
The Plant response rating was 0.

And the Plant response rating (speedwell; 31 g ai/ha)?
Its Plant response rating is 0.

What about the Plant response rating (speedwell; 62 g ai/ha) of the same molecule?
Its Plant response rating is 0.

And the Plant response rating (speedwell; 125 g ai/ha)?
The Plant response rating was 0.

And the Plant response rating (speedwell; 250 g ai/ha)?
Its Plant response rating is 10.

And the Plant response rating (oilseed rape; 16 g ai/ha)?
Its Plant response rating is 0.

What about the Plant response rating (oilseed rape; 31 g ai/ha) of the same molecule?
The Plant response rating was 0.

And the Plant response rating (oilseed rape; 62 g ai/ha)?
Its Plant response rating is 10.

What about the Plant response rating (oilseed rape; 125 g ai/ha) of the same molecule?
Its Plant response rating is 20.

What about the Plant response rating (oilseed rape; 250 g ai/ha) of the same molecule?
Its Plant response rating is 30.

With O=C1NCC(c2cc(F)c(F)c(F)c2)C1C(=O)Nc1ccccc1F (racemic) [Compound 34] as the molecule, how does the Plant response rating (bluegrass; Postemergence, 16 g ai/ha) read?
Its Plant response rating is 0.

And the Plant response rating (bluegrass; Postemergence, 31 g ai/ha)?
The Plant response rating was 0.

What about the Plant response rating (bluegrass; Postemergence, 62 g ai/ha) of the same molecule?
Its Plant response rating is 0.

What about the Plant response rating (bluegrass; Postemergence, 125 g ai/ha) of the same molecule?
The Plant response rating was 0.

What about the Plant response rating (bluegrass; Postemergence, 250 g ai/ha) of the same molecule?
Its Plant response rating is 0.

What about the Plant response rating (oat, wild; 16 g ai/ha) of the same molecule?
The Plant response rating was 0.

What about the Plant response rating (oat, wild; 31 g ai/ha) of the same molecule?
The Plant response rating was 0.

What about the Plant response rating (oat, wild; 62 g ai/ha) of the same molecule?
Its Plant response rating is 0.

What about the Plant response rating (oat, wild; 125 g ai/ha) of the same molecule?
Its Plant response rating is 0.

What about the Plant response rating (oat, wild; 250 g ai/ha) of the same molecule?
The Plant response rating was 0.

What about the Plant response rating (radish, wild; 16 g ai/ha) of the same molecule?
Its Plant response rating is 0.

What about the Plant response rating (radish, wild; 31 g ai/ha) of the same molecule?
The Plant response rating was 0.

What about the Plant response rating (radish, wild; 62 g ai/ha) of the same molecule?
The Plant response rating was 0.

And the Plant response rating (radish, wild; 125 g ai/ha)?
Its Plant response rating is 0.

What about the Plant response rating (radish, wild; 250 g ai/ha) of the same molecule?
The Plant response rating was 0.

What about the Plant response rating (speedwell; 16 g ai/ha) of the same molecule?
The Plant response rating was 0.

And the Plant response rating (speedwell; 31 g ai/ha)?
Its Plant response rating is 0.

What about the Plant response rating (speedwell; 62 g ai/ha) of the same molecule?
Its Plant response rating is 0.

What about the Plant response rating (speedwell; 125 g ai/ha) of the same molecule?
The Plant response rating was 0.

What about the Plant response rating (speedwell; 250 g ai/ha) of the same molecule?
The Plant response rating was 30.

What about the Plant response rating (oilseed rape; 16 g ai/ha) of the same molecule?
The Plant response rating was 0.

And the Plant response rating (oilseed rape; 31 g ai/ha)?
The Plant response rating was 0.

And the Plant response rating (oilseed rape; 62 g ai/ha)?
Its Plant response rating is 0.

And the Plant response rating (oilseed rape; 125 g ai/ha)?
Its Plant response rating is 0.

And the Plant response rating (oilseed rape; 250 g ai/ha)?
Its Plant response rating is 20.

Which “Plant response rating, Bluegrass” value (bluegrass; Preemergence, 31 g ai/ha) does the source give for O=C1NCC(c2cccc(C(F)(F)F)c2)C1C(=O)Nc1cccc(F)c1F (centres unmarked) [Compound 241] here?
Its value is 15.

And the “Plant response rating, Bluegrass” value (bluegrass; Preemergence, 62 g ai/ha)?
The value was 15.

What about the “Plant response rating, Bluegrass” value (bluegrass; Preemergence, 125 g ai/ha) of the same molecule?
The value was 45.

And the Plant response rating (bluegrass; Preemergence, 250 g ai/ha)?
Its Plant response rating is 70.

What about the “Plant response rating, Oat, Wild” value (oat, wild; 31 g ai/ha) of the same molecule?
Its value is 15.

What about the “Plant response rating, Oat, Wild” value (oat, wild; 62 g ai/ha) of the same molecule?
The value was 15.

What about the “Plant response rating, Oat, Wild” value (oat, wild; 125 g ai/ha) of the same molecule?
The value was 20.

And the “Plant response rating, Oat, Wild” value (oat, wild; 250 g ai/ha)?
Its value is 55.

And the “Plant response rating, Radish, Wild” value (radish, wild; 31 g ai/ha)?
The value was 0.

What about the “Plant response rating, Radish, Wild” value (radish, wild; 62 g ai/ha) of the same molecule?
The value was 0.

And the “Plant response rating, Radish, Wild” value (radish, wild; 125 g ai/ha)?
The value was 0.

What about the “Plant response rating, Radish, Wild” value (radish, wild; 250 g ai/ha) of the same molecule?
The value was 0.

What about the “Plant response rating, Speedwell” value (speedwell; 31 g ai/ha) of the same molecule?
The value was 10.

And the “Plant response rating, Speedwell” value (speedwell; 62 g ai/ha)?
The value was 35.

And the “Plant response rating, Speedwell” value (speedwell; 125 g ai/ha)?
The value was 70.

And the “Plant response rating, Speedwell” value (speedwell; 250 g ai/ha)?
The value was 85.

And the “Plant response rating, Oilseed Rape” value (oilseed rape; 31 g ai/ha)?
The value was 0.

And the “Plant response rating, Oilseed Rape” value (oilseed rape; 62 g ai/ha)?
Its value is 0.

And the “Plant response rating, Oilseed Rape” value (oilseed rape; 125 g ai/ha)?
The value was 5.

What about the “Plant response rating, Oilseed Rape” value (oilseed rape; 250 g ai/ha) of the same molecule?
Its value is 10.
